Read-outs that look alike come from different tables or passages of the source.
What was measured:
[1] = tested on: c-Src 3T3 cells; assay: BrdU cell growth inhibition, c-Src 3T3; format: cell-based, mouse; details: for GI50: c-Src 3T3 (c-Src527F/NIH3T3) cells; for activity at 0.1 µM / activity at 1 µM / activity at 10 µM: NIH3T3, read-out: c-Src 3T3 Growth, % of Control Mean, n = 3; for activity at 0.1 µM: 100 nM
Procedure: (§1) The GI50s for several of the compounds of the invention were assayed as described herein.
The cells were routinely cultured in DMEM supplemented with Fetal Bovine Serum (2.0% v/V), L-glutamine (2 mM) and Sodium Pyruvate (1 mM).
(§2) In the BrdU Assay for cell growth inhibition, quantitation of cell proliferation was based on the measurement of BrdU incorporation during DNA synthesis. The Cell Proliferation ELISA BrdU assay kit (colorimetric) was obtained from Roche Applied Science and performed as per vendor instructions.
(§3) The growth inhibition (GI) is determined from the formula GI=(T0−Tn×100/T0−CONn) where T0 is the BrdU growth of untreated cells at time “0”, Tn is the BrdU growth of treated cells at day “n” and CONn is the control BrdU growth of control cells at day “n”. The GI50 was extrapolated and the data plotted using XL-Fit 4.0 software.
(§4) For 96 well culture plate experiments, c-Src 3T3 medium was supplemented with 10 mM HEPES buffer. HT-29 cells were seeded in standard tissue culture 96-well plates and c-Src 3T3 cells were seeded in 96-well plates coated with Poly-D-lysine (BIOCOAT™). To increase CO2 diffusion, c-Src 3T3 96-well plates were incubated with their lids raised by ˜2 mm using sterile rubber caps.
(§5) Samples were reconstituted in DMSO at 20 mM and intermediate dilutions made using DMEM containing 10% FBS. […] Plates were assayed for BrdU and the data analyzed as above for GI50.
(§6) All compounds were initially prepared as 20 mM DMSO stock solutions and then diluted into buffer for the in vitro tumor growth assays. NG means no cell growth beyond the control and T means the number of cells in the drug treated wells was less than in the control (i.e. net cell loss).

[2] = tested on: HT29 cell line; assay: BrdU cell growth inhibition, HT29; format: cell-based, human; details: for activity at 0.05 µM / activity at 0.5 µM / activity at 5 µM: HT-29, read-out: HT-29 Growth, % of Control Mean, n = 3; for activity at 0.05 µM: 50 nM; for activity at 0.5 µM: 500 nM
Procedure: as §1
The HT29 cell line is a NCI standard human colon carcinoma cell line.
as §2, §3, §4, §5, §6
Growth Inhibition. […] T1 values≤T0 values were designated as T, cytotoxicity.

[3] = Homo sapiens, HT-29, HT29 (Colon) cells, read-out: GI50

GI50 [2, 3] [nM] | GI50 ([2]; HT29 (Colon) cells) | SMILES | GI50 ([1]; Mus musculus, read-out: GI50) [nM] | activity at 0.1 µM ([1]; Mus musculus) [%] | activity at 1 µM ([1]; Mus musculus) [%] | activity at 10 µM ([1]; Mus musculus) [%] | activity at 0.05 µM ([2]; Homo sapiens) [%] | activity at 0.5 µM ([2]; Homo sapiens) [%] | activity at 5 µM ([2]; Homo sapiens) [%] | GI50 [1] | GI50 ([2]; HT29 (Colon) cells, read-out: GI50) [nM]
868 | – | CN1CCN(CCCOc2ccc(-c3ccc(CC(=O)NCc4cccc(F)c4)nc3)cc2)CC1 [KX2-390] | 797 | – | – | – | – | – | – | – | –
– | – | O=C(Cc1ccc(-c2cccc(Cl)c2)nc1)NCc1cccc(F)c1 [KX1-317, 2-[6-(3-Chloro-phenyl)-pyridin-3-yl]-N-(3-fluoro-benzyl)-acetamide] | – | 94.2 | 85.6 | < 0 | 83.5 | 64 | < 0 | – | –
45 | – | CCOc1ccc(-c2ccc(CC(=O)NCc3cccc(F)c3)nc2)cc1 [KX2-359] | 34 | < 0 | < 0 | < 0 | < 0 | < 0 | < 0 | – | –
680 | – | O=C(Cc1ccc(-c2ccncc2)cc1)NCc1cccc(F)c1 [KX1-327] | > 200 | 81.3 | < 0 | < 0 | 31.6 | < 0 | < 0 | – | –
248 | – | O=C(Cc1ccc(-c2ccc(OCCCN3CCOCC3)cc2)cn1)NCc1cccc(F)c1 [KX2-383] | 327 | – | – | – | – | – | – | – | –
– | – | O=C(Cc1ccc(-c2ccccc2)cc1F)NCc1cccc(F)c1 [KX1-313, N-(3-fluorobenzyl)-4-phenyl-2-fluorophenylacetamide] | – | 91.6 | < 0 | < 0 | 80.2 | < 0 | < 0 | – | –
– | – | O=C(Cc1ccc(-c2ccccc2)cc1)NCc1cc(O)cc(OCc2ccccc2)c1 [KX1-306] | – | 47 | < 0 | < 0 | 124 | < 0 | < 0 | – | –
– | – | CCOc1ccc(-c2ccc(CC(=O)NCc3cc(F)cc(OCC(C)C)c3)nc2)cc1 [KX2-368] | – | 99 | 101 | 27 | 107 | 70 | < 0 | – | –
– | – | O=C(Cc1ccc(-c2ccccc2)cc1)Nc1cccc(F)c1 [KX1-308, N-(3-fluorophenyl)-4-biphenylacetamide] | – | 94.5 | 77.7 | 67.1 | 87.9 | 76.1 | 32.3 | – | –
– | – | O=C(Cc1ccc(-c2ccc(F)cc2)nc1)NCc1cccc(F)c1 [KX1-320, N-(3-Fluoro-benzyl)-2-[6-(4-fluoro-phenyl)-pyridin-3-yl]-acetamide] | – | 90.4 | 86.5 | 73.1 | 111 | 132 | 86.2 | – | –
– | – | O=C(Cc1ccc(-c2ccccc2)c(F)c1)NCc1cccc(F)c1 [KX1-319, N-(3-Fluoro-benzyl)-2-(2-fluoro-biphenyl-4-yl)-acetamide] | – | 88.2 | < 0 | < 0 | 101 | < 0 | < 0 | – | –
– | – | O=C(Cc1cccc(-c2ccccc2)c1)NCc1cccc(F)c1 [KX1-307] | – | 65.7 | 45.3 | 4.2 | 85.9 | 93.8 | 39.4 | – | –
56 | – | O=C(Cc1ccc(-c2ccc(CN3CCOCC3)cc2)cn1)NCc1cccc(F)c1 [KX2-362] | 56 | 101 | < 0 | < 0 | 86 | < 0 | < 0 | – | –
– | – | O=C(Cc1ccc(-c2ccccn2)cc1)NCc1cccc(F)c1 [KX1-315, N-(3-Fluoro-benzyl)-2-(4-pyridin-2-yl-phenyl)-acetamide] | – | 89.3 | 88.1 | < 0 | 66 | 50.3 | < 0 | – | –
– | – | O=C(Cc1ccc(-c2ccccc2F)cc1)NCc1cccc(F)c1 [KX1-309] | – | < 0 | < 0 | < 0 | 29.5 | < 0 | < 0 | – | –
– | – | O=C(Cc1ccc(-c2ccc(OCCCN3CCCCC3)cc2)cn1)NCc1cccc(F)c1 [KX2-374] | – | 110 | 84 | < 0 | 74 | 57 | < 0 | – | –

GI50 [2, 3] [nM] | GI50 ([2]; HT29 (Colon) cells) | SMILES | GI50 ([1]; Mus musculus, read-out: GI50) [nM] | activity at 0.1 µM ([1]; Mus musculus) [%] | activity at 1 µM ([1]; Mus musculus) [%] | activity at 10 µM ([1]; Mus musculus) [%] | activity at 0.05 µM ([2]; Homo sapiens) [%] | activity at 0.5 µM ([2]; Homo sapiens) [%] | activity at 5 µM ([2]; Homo sapiens) [%] | GI50 [1] | GI50 ([2]; HT29 (Colon) cells, read-out: GI50) [nM]
– | inactive (c-Src 3T3); inactive (HT-29) | O=C(Cc1ccc(-c2ccccc2)c[n+]1[O-])NCc1cccc(F)c1 [KX1-329 N-oxide] | – | – | – | – | – | – | – | inactive (c-Src 3T3); inactive (HT-29) | –
– | – | CCOc1ccccc1-c1ccc(CC(=O)NCc2cccc(F)c2)nc1 [KX2-360] | – | 106 | < 0 | < 0 | 91 | < 0 | < 0 | – | –
354 | – | O=C(Cc1ccc(-c2ccc(OCCN3CCCCC3)cc2)cn1)NCc1cccc(F)c1 [KX2-375] | 206 | < 0 | < 0 | < 0 | 99 | < 0 | < 0 | – | –
93 | – | CN1CCN(CCOc2ccc(-c3ccc(CC(=O)NCc4cccc(F)c4)nc3)cc2)CC1 [KX2-365] | 133 | 88 | < 0 | < 0 | 88 | < 0 | < 0 | – | –
– | – | O=C(Cc1ccc(-c2ccc(CN3CCCCC3)cc2)cn1)NCc1cccc(F)c1 [KX2-364] | – | 92 | 81 | < 0 | 105 | 80 | < 0 | – | –
21 | – | O=C(Cc1ccc(-c2ccc(OCCN3CCOCC3)cc2F)cn1)NCc1cccc(F)c1 [KX2-392] | 13 | – | – | – | – | – | – | – | –
– | – | CC(C)COc1cc(F)cc(CNC(=O)Cc2ccc(-c3ccc(CN4CCCCC4)cc3)cn2)c1 [KX2-366] | – | 103 | 83 | < 0 | 89 | 54 | < 0 | – | –
– | – | CC(C)COc1cc(F)cc(CNC(=O)Cc2ccc(-c3ccc(N4CCCCC4)cc3)cn2)c1 [KX2-371] | – | 75 | 72 | 16 | 98 | 33 | 16 | – | –
– | inactive | CCOc1ccc(-c2ccc(CC(=O)NCc3cccc(F)c3)nc2)c(OCCN2CCCCC2)c1 [KX2-389] | – | – | – | – | – | – | – | Inactive | –
– | – | O=C(Cc1ccc(-c2ccccc2)nc1)NCc1cccc(F)c1 [KX1-314, N (3-fluorobenzyl)-2-phenylpyridine-5-acetamide] | – | 93.6 | 88.4 | 39.3 | 53.2 | 83.7 | 14.4 | – | –
639 | – | CN1CCN(c2ccc(-c3ccc(CC(=O)NCc4cccc(F)c4)nc3)cc2)CC1 [KX2-373] | 96 | 97 | < 0 | < 0 | 64 | < 0 | < 0 | – | –
– | – | CCOc1ccc(-c2ccc(CC(=O)NCc3cccc(F)c3)c[n+]2[O-])cc1 [KX1-358, 2-[6-(4-Ethoxy-phenyl)-1-oxo-pyridin-3-yl]-N-(3-fluoro-benzyl)-acetamide] | – | 92.2 | 91.4 | 82.7 | – | – | – | – | –
– | – | O=C(Cc1ccc(-c2cc[n+]([O-])cc2)cc1)NCc1cccc(F)c1 [KX1-357] | – | 101 | 95.4 | 9 | – | – | – | – | –
– | – | CC(C)COc1cc(F)cc(CNC(=O)Cc2ccc(-c3ccc(CN4CCN(C)CC4)cc3)cn2)c1 [KX2-385] | 232 | – | – | – | – | – | – | – | –
– | – | O=C1[O][Pt]2([NH][C@@H]3CCCC[C@H]3[NH]2)[O]C1=O [oxaliplatin, reference compound] | – | – | – | – | – | – | – | – | 1480

Source: patent publication US10196357B2, “Biaryl compositions and methods for modulating a kinase cascade” (Athenex, Inc., priority 2007, dated 2019)
